These molecules were tested on RAW macrophages (assay: NO production (Griess assay), LPS/IFNγ-activated RAW264.7 macrophages). Conditions: 10 μM, 24 hours, 1 μM GABA, LPS/IFNγ.
Type: cell-based, mouse

CC1N=C(c2ccccc2F)c2cc(Br)ccc2-n2cnc(-c3cnco3)c21 (racemic) [GL-III-76A] and C#Cc1ccc2c(c1)C(c1ccccc1F)=N[C@H](C)C(=O)N2 [GL-I-62] are within error of each other in “Inhibition of NO production (%) RAW macrophages 10 μM” value: 6 ± 3% for the first, 3 ± 2% for the second.

Going from C#Cc1ccc2c(c1)C(c1ccccc1)=NCc1c(C(=O)OCCCO)ncn1-2 [GL-I-48] to O=C(O)c1ncn2c1CN=C(c1ccccc1)c1cc(Br)ccc1-2 [GL-I-50], the “Inhibition of NO production (%) RAW macrophages 10 μM” value falls from 4 ± 2% to 0 ± 1%.

C#Cc1ccc2c(c1)C(c1ccccc1F)=N[C@@H](C)C(=O)N2 [GL-I-64] and CC1N=C(c2ccccn2)c2cc(Br)ccc2NC1=O (centres unmarked) [GL-II-05] are within error of each other in “Inhibition of NO production (%) RAW macrophages 10 μM” value: 3 ± 3% for the first, 0 ± 1% for the second.

CCOC(=O)c1ncn2c1[C@@H](C)N=C(c1ccccn1)c1cc(C#C[Si](C)(C)C)ccc1-2 [GL-II-18] and C#Cc1ccc2c(c1)C(c1ccccn1)=NC(C)C(=O)N2C (centres unmarked) [GL-II-61] are within error of each other in “Inhibition of NO production (%) RAW macrophages 10 μM” value: 11 ± 4% for the first, 10 ± 4% for the second.

The molecules below were run on Mouse microglia (assay: NO production (Griess assay), LPS/IFNγ-activated mouse microglia). Conditions: 10 μM, 24 hours, 1 μM GABA, LPS/IFNγ.
Type: cell-based

First: CC1N=C(c2ccccc2F)c2cc(Br)ccc2-n2cnc(-c3cnco3)c21 (racemic) [GL-III-76A]
Second: C#Cc1ccc2c(c1)C(c1ccccc1F)=N[C@H](C)C(=O)N2 [GL-I-62]
The “Inhibition of NO production (%) Mouse microglia 10 μM” value of the first is higher: 58 ± 9% for the first, 13 ± 7% for the second.

Going from C#Cc1ccc2c(c1)C(c1ccccc1)=NCc1c(C(=O)OCCCO)ncn1-2 [GL-I-48] to O=C(O)c1ncn2c1CN=C(c1ccccc1)c1cc(Br)ccc1-2 [GL-I-50], the “Inhibition of NO production (%) Mouse microglia 10 μM” value rises from 0 ± 4% to 33 ± 6%.

Going from C#Cc1ccc2c(c1)C(c1ccccc1F)=N[C@@H](C)C(=O)N2 [GL-I-64] to CC1N=C(c2ccccn2)c2cc(Br)ccc2NC1=O (centres unmarked) [GL-II-05], the “Inhibition of NO production (%) Mouse microglia 10 μM” value falls from 24 ± 3% to 12 ± 5%.

First: CCOC(=O)c1ncn2c1[C@@H](C)N=C(c1ccccn1)c1cc(C#C[Si](C)(C)C)ccc1-2 [GL-II-18]
Second: C#Cc1ccc2c(c1)C(c1ccccn1)=NC(C)C(=O)N2C (centres unmarked) [GL-II-61]
The “Inhibition of NO production (%) Mouse microglia 10 μM” value of the first is higher: 49 ± 10% for the first, 28 ± 2% for the second.

These molecules were tested on RAW macrophages (assay: Cell viability (CellTiter-Glo), RAW macrophages). Conditions: CellTiter-Glo.
Type: cell-based, mouse

CC1N=C(c2ccccc2F)c2cc(Br)ccc2-n2cnc(-c3cnco3)c21 (racemic) [GL-III-76A] and C#Cc1ccc2c(c1)C(c1ccccc1F)=N[C@H](C)C(=O)N2 [GL-I-62] are within error of each other in “Cell viability (%) RAW macrophages 50 μM” value: 97 ± 4% for the first, 100 ± 3% for the second.

C#Cc1ccc2c(c1)C(c1ccccc1)=NCc1c(C(=O)OCCCO)ncn1-2 [GL-I-48] and O=C(O)c1ncn2c1CN=C(c1ccccc1)c1cc(Br)ccc1-2 [GL-I-50] are the same in “Cell viability (%) RAW macrophages 50 μM” value: 100 ± 12% for the first, 100 ± 9% for the second.

C#Cc1ccc2c(c1)C(c1ccccc1F)=N[C@@H](C)C(=O)N2 [GL-I-64] and CC1N=C(c2ccccn2)c2cc(Br)ccc2NC1=O (centres unmarked) [GL-II-05] are the same in “Cell viability (%) RAW macrophages 50 μM” value: 100 ± 5% for the first, 100 ± 11% for the second.

CCOC(=O)c1ncn2c1[C@@H](C)N=C(c1ccccn1)c1cc(C#C[Si](C)(C)C)ccc1-2 [GL-II-18] and C#Cc1ccc2c(c1)C(c1ccccn1)=NC(C)C(=O)N2C (centres unmarked) [GL-II-61] are within error of each other in “Cell viability (%) RAW macrophages 50 μM” value: 99 ± 2% for the first, 100 ± 8% for the second.

These molecules were tested on Mouse microglia (assay: Cell viability (CellTiter-Glo), mouse microglia). Conditions: 50 μM, CellTiter-Glo.
Type: cell-based
Protocol: Next, a library of GABAAR ligands was investigated to identify compounds that reduce the production of NO as a marker of anti-inflammatory activity. […] NO was quantified with a Greiss assay. Cell viability was determined with CellTiter-Glo.
Nitric oxide production (Griess assay) and viability assay (CellTiter-Glo). 80 μL of mouse microglia culture (1×10^6 cells/mL) was plated into sterile 384 well plates representing non-activated wells. The remaining culture was activated with 50 ng/ml LPS (Invivogen, NC9836) and 150 U/mL IFNγ (R&D Systems, 485MI100) and distributed into the 384 well plates. […] Assay plates were incubated for approximately 24 hours (unless otherwise noted) at 37° C., centrifuged, and 40 μL of supernatant transferred to a new plate for analysis using the Griess Assay (Promega, Madison, WI). Absorbance at 530 nm was measured using a TECAN Infinite M1000 plate reader. The remaining 40 μL containing cells was analyzed for toxicity by the CellTiter-Glo Assay (Promega, Madison, WI). Luminescence was read using a TECAN Infinite M1000 plate reader.

CC1N=C(c2ccccc2F)c2cc(Br)ccc2-n2cnc(-c3cnco3)c21 (racemic) [GL-III-76A] and C#Cc1ccc2c(c1)C(c1ccccc1F)=N[C@H](C)C(=O)N2 [GL-I-62] are within error of each other in “Cell viability (%) Mouse microglia 50 μM” value: 100 ± 9% for the first, 92 ± 7% for the second.

C#Cc1ccc2c(c1)C(c1ccccc1)=NCc1c(C(=O)OCCCO)ncn1-2 [GL-I-48] and O=C(O)c1ncn2c1CN=C(c1ccccc1)c1cc(Br)ccc1-2 [GL-I-50] are within error of each other in “Cell viability (%) Mouse microglia 50 μM” value: 78 ± 5% for the first, 88 ± 9% for the second.

C#Cc1ccc2c(c1)C(c1ccccc1F)=N[C@@H](C)C(=O)N2 [GL-I-64] and CC1N=C(c2ccccn2)c2cc(Br)ccc2NC1=O (centres unmarked) [GL-II-05] are within error of each other in “Cell viability (%) Mouse microglia 50 μM” value: 81 ± 5% for the first, 88 ± 8% for the second.

CCOC(=O)c1ncn2c1[C@@H](C)N=C(c1ccccn1)c1cc(C#C[Si](C)(C)C)ccc1-2 [GL-II-18] and C#Cc1ccc2c(c1)C(c1ccccn1)=NC(C)C(=O)N2C (centres unmarked) [GL-II-61] are within error of each other in “Cell viability (%) Mouse microglia 50 μM” value: 89 ± 9% for the first, 91 ± 8% for the second.

These molecules were tested on HEK293 (assay: Viability assay (CellTiter-Glo), HEK293). Conditions: 120 μM, CellTiter-Glo.
Type: cell-based, human
Protocol: (§1) The screen identified several compounds that reduced NO in activated microglia and macrophages. The tested compounds included achiral and chiral imidazodiazepines and benzodiazepines. In general, microglia were more sensitive to compound treatment with more pronounced reduction of NO than macrophages. […] Cell viability assays with HEK293 (kidney) and HepG2 (liver) cells were conducted in a concentration dependent manner. A limited number of compounds, such as GL-III-63, GL-III-76A, and GL-III-77, were toxic at 120 μM.
(§2) Viability assay. Human liver hepatocellular carcinoma (HEPG2) and human embryonic kidney 293T (HEK293T) cell lines were purchased (ATCC) and cultured in 75 cm^2 flasks (CellStar). Cells were grown in DMEM/High Glucose (Hyclone, #SH3024301) media to which non-essential amino acids (Hyclone, #SH30238.01), 10 mM HEPES (Hyclone, #SH302237.01), 5×10^6 units of penicillin and streptomycin (Hyclone, #SV30010), and 10% of heat inactivated fetal bovine serum (Gibco, #10082147) were added. Cells were harvested using 0.05% Trypsin (Hyclone, #SH3023601), washed with PBS, and dispensed into sterile white, optical bottom 384-well plates (NUNC, #142762). After three hours, small molecule DMSO solutions were transferred with a Tecan Freedom EVO liquid handling system equipped with a 100 nL pin tool (V&P Scientific). The controls were 3-dibutylamino-1-(4-hexyl-phenyl)-propan-1-one (25 mM in DMSO, positive control) and DMSO (negative control). The cells were incubated for 48 hours followed by the addition of CellTiter-Glo™, a luminescence-based cell viability assay (Promega, Madison, WI). All luminescence readings were performed on a Tecan Infinite M1000 plate reader. The assay was carried out in quadruplet with two independent runs. The data were analyzed by nonlinear regression.

Going from CC1N=C(c2ccccc2F)c2cc(Br)ccc2-n2cnc(-c3cnco3)c21 (racemic) [GL-III-76A] to C#Cc1ccc2c(c1)C(c1ccccc1F)=N[C@H](C)C(=O)N2 [GL-I-62], the “Cell viability (%) HEK293 120 μM” value rises from 0 ± 3% to 79 ± 7%.

Going from C#Cc1ccc2c(c1)C(c1ccccc1)=NCc1c(C(=O)OCCCO)ncn1-2 [GL-I-48] to O=C(O)c1ncn2c1CN=C(c1ccccc1)c1cc(Br)ccc1-2 [GL-I-50], the “Cell viability (%) HEK293 120 μM” value rises from 65 ± 8% to 97 ± 12%.

First: C#Cc1ccc2c(c1)C(c1ccccc1F)=N[C@@H](C)C(=O)N2 [GL-I-64]
Second: CC1N=C(c2ccccn2)c2cc(Br)ccc2NC1=O (centres unmarked) [GL-II-05]
The “Cell viability (%) HEK293 120 μM” value of the first is lower: 77 ± 13% for the first, 94 ± 3% for the second.

Going from CCOC(=O)c1ncn2c1[C@@H](C)N=C(c1ccccn1)c1cc(C#C[Si](C)(C)C)ccc1-2 [GL-II-18] to C#Cc1ccc2c(c1)C(c1ccccn1)=NC(C)C(=O)N2C (centres unmarked) [GL-II-61], the “Cell viability (%) HEK293 120 μM” value rises from 53 ± 10% to 83 ± 10%.

Same assay, conditions: HEK293, 120 μM

In the case of CC1N=C(c2ccccc2F)c2cc(Br)ccc2-n2cnc(-c3cnco3)c21 (racemic) [GL-III-76A], the “toxicity at 120 μM (in words)” value was “toxic”.

What follows are molecules tested on HEPG2 (assay: Viability assay (CellTiter-Glo), HEPG2). Conditions: 120 μM, CellTiter-Glo.
Type: cell-based, human
Protocol: as §1, §2

Compared with CC1N=C(c2ccccc2F)c2cc(Br)ccc2-n2cnc(-c3cnco3)c21 (racemic) [GL-III-76A], C#Cc1ccc2c(c1)C(c1ccccc1F)=N[C@H](C)C(=O)N2 [GL-I-62] is higher in “Cell viability (%) HEPG2 120 μM” value: 0 ± 2% for the first, 89 ± 10% for the second.

C#Cc1ccc2c(c1)C(c1ccccc1)=NCc1c(C(=O)OCCCO)ncn1-2 [GL-I-48] and O=C(O)c1ncn2c1CN=C(c1ccccc1)c1cc(Br)ccc1-2 [GL-I-50] are the same in “Cell viability (%) HEPG2 120 μM” value: 100 ± 4% for the first, 100 ± 2% for the second.

C#Cc1ccc2c(c1)C(c1ccccc1F)=N[C@@H](C)C(=O)N2 [GL-I-64] and CC1N=C(c2ccccn2)c2cc(Br)ccc2NC1=O (centres unmarked) [GL-II-05] are within error of each other in “Cell viability (%) HEPG2 120 μM” value: 100 ± 9% for the first, 92 ± 5% for the second.

Compared with CCOC(=O)c1ncn2c1[C@@H](C)N=C(c1ccccn1)c1cc(C#C[Si](C)(C)C)ccc1-2 [GL-II-18], C#Cc1ccc2c(c1)C(c1ccccn1)=NC(C)C(=O)N2C (centres unmarked) [GL-II-61] is lower in “Cell viability (%) HEPG2 120 μM” value: 100 ± 8% for the first, 82 ± 3% for the second.

Same assay, conditions: HepG2, 120 μM

In the case of CC1N=C(c2ccccc2F)c2cc(Br)ccc2-n2cnc(-c3cnco3)c21 (racemic) [GL-III-76A], the “toxicity at 120 μM (in words)” value was “toxic”.
